Reference: PMC10473604 (bioRxiv, 2023)

System: HLA-A2
Assay: HLA-I binding assay with biotin-tagged HLA-A2 monomers
Design: species or system human
Conditions: in-silico predicted HLA-A2 binders not listed in Fig. 1G

Row | Sequence | HLA-A2 binding in vitro, in words
1 | GIIYIIYKL [CVB1–2-3–4-5–6_1502–1510] | did not confirm as binders
2 | KLPDALSQM [CVB1_150–158] | did not confirm as binders
3 | VIASYPWPI [CVB1–2-3–5-6_2051–2059] | did not confirm as binders
4 | VMGDALGSV [ZnT8_245–253] | binding
